Data: ChEMBL document CHEMBL1201862, “PubChem BioAssay data set” (2004)
Activity calls are given as the source filed them.

Legend:
Protein skinhead-1 = molecular target: T1, Protein skinhead-1 (Caenorhabditis elegans, UniProt P34707); type: functional
T1 sequence (P34707 whole entry): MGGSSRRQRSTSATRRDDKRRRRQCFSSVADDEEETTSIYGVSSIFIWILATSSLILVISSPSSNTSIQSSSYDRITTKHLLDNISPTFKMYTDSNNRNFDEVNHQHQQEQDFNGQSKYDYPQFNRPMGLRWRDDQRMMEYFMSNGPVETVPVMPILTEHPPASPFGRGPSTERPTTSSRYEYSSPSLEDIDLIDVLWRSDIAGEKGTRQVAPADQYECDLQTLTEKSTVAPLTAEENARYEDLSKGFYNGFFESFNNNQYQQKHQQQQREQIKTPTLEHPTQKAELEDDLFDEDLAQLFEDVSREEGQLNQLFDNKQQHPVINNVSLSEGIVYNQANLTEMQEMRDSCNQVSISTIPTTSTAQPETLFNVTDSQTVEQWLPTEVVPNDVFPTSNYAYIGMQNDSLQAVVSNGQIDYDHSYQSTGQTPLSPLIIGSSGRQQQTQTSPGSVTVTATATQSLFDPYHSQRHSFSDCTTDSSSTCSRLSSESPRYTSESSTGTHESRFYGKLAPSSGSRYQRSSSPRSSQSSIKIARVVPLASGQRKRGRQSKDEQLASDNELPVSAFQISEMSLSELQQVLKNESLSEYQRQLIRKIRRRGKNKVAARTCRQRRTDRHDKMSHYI

[1] = A cytotoxicity screen of small molecule inhibitors of the PhoP region in Salmonella typhi identified in the primary screen. [Related pubchem assays: 1850, 1864, 1985 ]; type: functional
[2] = molecular target: T2, Polyadenylate-binding protein 1 (Homo sapiens, UniProt P11940); assay: MLLE domain peptide-binding blockers, IC50 – biochemical, fluorescence polarization, FITC-PAM2 peptide, dose response (AID 602259); type: functional; details: read-out: IC50_Mean
T2 sequence (P11940 whole entry, the tested form may be a part): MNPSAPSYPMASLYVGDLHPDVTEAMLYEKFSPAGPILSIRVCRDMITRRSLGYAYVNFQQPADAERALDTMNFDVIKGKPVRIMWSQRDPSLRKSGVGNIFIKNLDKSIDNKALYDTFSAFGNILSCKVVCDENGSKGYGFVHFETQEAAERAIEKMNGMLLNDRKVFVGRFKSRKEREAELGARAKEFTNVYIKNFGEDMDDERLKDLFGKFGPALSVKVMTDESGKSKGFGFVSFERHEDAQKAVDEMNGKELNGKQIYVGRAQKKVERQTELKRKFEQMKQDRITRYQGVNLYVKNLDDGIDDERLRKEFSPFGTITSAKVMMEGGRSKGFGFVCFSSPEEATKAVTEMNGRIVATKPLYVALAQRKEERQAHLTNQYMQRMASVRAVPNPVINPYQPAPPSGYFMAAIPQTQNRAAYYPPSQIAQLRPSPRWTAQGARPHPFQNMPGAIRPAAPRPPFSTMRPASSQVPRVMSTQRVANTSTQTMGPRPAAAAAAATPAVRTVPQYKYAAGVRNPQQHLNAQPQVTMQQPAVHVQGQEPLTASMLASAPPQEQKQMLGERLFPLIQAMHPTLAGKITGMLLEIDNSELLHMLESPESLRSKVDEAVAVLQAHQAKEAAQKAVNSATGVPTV

[3] = molecular target: T2, Polyadenylate-binding protein 1; assay: MLLE binding blockers, Cy5 peptide tracer – biochemical, fluorescence polarization, Cy5-PAM2 peptide, secondary, miRNA deadenylation inhibitor project, dose response (AID 602260); type: functional; details: read-out: IC50_Mean
[4] = molecular target: T3, High affinity choline transporter 1 (Homo sapiens, UniProt Q9GZV3); assay: human choline transporter blockers, potency – cell-based, 5-point CRC, membrane potential dye, dose response (AID 504840); type: functional
T3 sequence (Q9GZV3 whole entry): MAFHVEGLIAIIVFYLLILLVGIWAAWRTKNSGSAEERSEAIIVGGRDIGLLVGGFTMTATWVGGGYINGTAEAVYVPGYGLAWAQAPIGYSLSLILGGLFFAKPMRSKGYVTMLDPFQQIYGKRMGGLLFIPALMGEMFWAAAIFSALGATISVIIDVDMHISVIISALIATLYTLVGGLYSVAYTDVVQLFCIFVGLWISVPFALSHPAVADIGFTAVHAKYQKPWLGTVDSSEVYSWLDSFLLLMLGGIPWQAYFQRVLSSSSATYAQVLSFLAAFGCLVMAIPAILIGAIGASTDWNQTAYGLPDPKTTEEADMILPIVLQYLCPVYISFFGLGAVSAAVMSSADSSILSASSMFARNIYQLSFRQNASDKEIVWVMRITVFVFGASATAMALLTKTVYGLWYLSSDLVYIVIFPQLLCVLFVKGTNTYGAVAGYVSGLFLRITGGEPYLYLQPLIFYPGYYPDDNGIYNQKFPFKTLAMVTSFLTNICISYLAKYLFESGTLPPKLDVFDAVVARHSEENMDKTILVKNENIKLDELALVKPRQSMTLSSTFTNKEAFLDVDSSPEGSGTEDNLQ

[5] = tested on: Streptococcus sp. 'group A'; assay: Streptococcus pyogenes SK(-)GAS viability under kanamycin – luminescence, BacTiterGlo, confirmation, counter-screen for streptokinase expression inhibitor project, dose response (AID 1900); type: functional, organism-based
Streptococcus = assay: GAS UMAA2166 growth inhibition – luminescence, BacTiterGlo, counter-screen for streptokinase expression inhibitor project, dose response (AID 1915); type: functional, organism-based;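 also: potency for reduction of bacterial viability or growth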
[6] = molecular target: T4, Heat shock factor protein 1 (Mus musculus, UniProt P38532); assay: enhancement of HSF1-driven luciferase signal – cell-based, NIH3T3, luminescence, dose retest, confirmation (AID 435004); type: functional;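 also: stress induced by proteasome inhibitor MG132 added 30 min after compound; luciferase reporter driven by HSF1 response element in NIH3T3 cells; actives raise luminescence as potentiators of the MG132 stress response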
T4 sequence (P38532 whole entry): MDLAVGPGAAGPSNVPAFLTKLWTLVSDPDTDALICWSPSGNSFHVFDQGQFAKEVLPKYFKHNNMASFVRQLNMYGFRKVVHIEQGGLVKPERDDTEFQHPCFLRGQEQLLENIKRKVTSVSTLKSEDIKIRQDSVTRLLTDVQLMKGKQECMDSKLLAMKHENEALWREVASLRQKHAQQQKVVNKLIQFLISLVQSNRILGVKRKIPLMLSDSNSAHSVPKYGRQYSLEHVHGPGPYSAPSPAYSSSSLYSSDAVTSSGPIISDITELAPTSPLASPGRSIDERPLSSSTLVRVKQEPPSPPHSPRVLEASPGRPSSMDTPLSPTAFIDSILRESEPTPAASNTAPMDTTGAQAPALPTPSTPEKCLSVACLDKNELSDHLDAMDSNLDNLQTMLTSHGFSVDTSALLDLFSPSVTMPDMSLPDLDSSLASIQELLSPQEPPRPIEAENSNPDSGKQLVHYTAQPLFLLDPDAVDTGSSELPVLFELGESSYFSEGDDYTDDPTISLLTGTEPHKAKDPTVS

[7] = microbe, parasite or virus in culture; type: functional; details: Mycobacterium tuberculosis
[8] = Luminescence Cell-Based Dose Retest to Confirm Inhibitors of Cancer Stem Cells. [Related pubchem assays (depositor defined):AID2717, AID2721]; type: functional; details: Homo sapiens
Streptokinase A = molecular target: T5, Streptokinase A (Streptococcus pyogenes serotype M1, UniProt P10520); assay: viability-normalized secreted streptokinase activity reduction – plasminogen activation absorbance, OD405, dose response (AID 1914); type: functional, Streptococcus pyogenes M1 GAS;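 also: secreted streptokinase activity via plasminogen activation per viability signal from cell pellet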
T5 sequence (P10520 whole entry): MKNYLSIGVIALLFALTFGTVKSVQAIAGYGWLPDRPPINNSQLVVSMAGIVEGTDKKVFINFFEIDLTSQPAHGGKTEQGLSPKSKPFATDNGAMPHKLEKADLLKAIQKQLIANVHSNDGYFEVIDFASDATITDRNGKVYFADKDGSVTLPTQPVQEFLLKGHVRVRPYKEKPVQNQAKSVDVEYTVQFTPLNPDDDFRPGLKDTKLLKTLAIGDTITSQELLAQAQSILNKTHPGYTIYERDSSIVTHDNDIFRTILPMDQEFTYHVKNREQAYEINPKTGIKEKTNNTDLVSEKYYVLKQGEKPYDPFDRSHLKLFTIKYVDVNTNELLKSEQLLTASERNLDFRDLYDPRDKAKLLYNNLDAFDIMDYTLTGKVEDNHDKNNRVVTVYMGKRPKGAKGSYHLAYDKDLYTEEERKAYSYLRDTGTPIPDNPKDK

cells = type: functional
[9] = Luminescence Cell-Based Dose Response HTS to Identify Activators of Luciferase Translation or Activity in H4 […] Cells. [Related pubchem assays: 1829 (Project Summary), 1814 (Primary HTS)]; type: functional
INS1 = assay: INS-1E survival protection against cytokine death – cell-based, luminescence, retest, dose response (AID 449756); type: functional; details: Rattus norvegicus;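 also: cell death triggered by IL-1 beta plus TNF-alpha plus IFN-gamma mixture; protective hits raise ATP signal compared with cytokine alone wells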
[10] = Luminescence Cell-Based Dose Confirmation HTS to Identify Activators of 5'UTR Stem-Loop Driven Alpha-Synuclein mRNA Translation in H4 Neuroglioblastoma Cells. [Related pubchem assays: 1829 (Project Summary), 1814 (Primary HTS)]; type: functional
[11] = NIH3T3 cell viability loss – ATP luminescence, mouse fibroblasts, counter-screen, dose response (AID 2010); type: functional, cell-based;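 also: cells exposed to compound for about 90 hours before reading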
H4 = assay: Luminescence Cell-Based Dose Response HTS to Identify Activators of 5'UTR Stem-Loop Driven Prion Protein mRNA Translation in H4 Neuroglioblastoma Cells. [Related pubchem assays: 1829 (Project Summary), 1814 (Primary HTS)]; type: functional; details: Homo sapiens
[12] = Trypanosoma cruzi growth suppression in host cells – NIH3T3 host cells, beta-gal luminescence, confirmation (AID 2044); type: functional, cell-based;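 also: intracellular parasites grown in NIH/3T3 mouse fibroblasts as host cells; luminescent beta-galactosidase reporter signal from transgenic T. cruzi replicating inside host cells; inhibitors lower the luminescence signal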

C[C@@]12C(=O)N(Cc3ccc(-c4ccccc4)cc3)CC(=O)N1[C@H](/C=C/c1ccccc1)[C@@H]1C(=O)N(c3ccccc3)C(=O)[C@@H]12
IC50 (Protein skinhead-1): > 100 µM (inactive)

O=C(Nc1ccc(Cl)cc1)NC1CCCCNC1=O (stereo unspecified)
IC50 (Protein skinhead-1): > 100 µM (inactive)

CC(=O)NCCn1c(C)cc2ccccc21
IC50 (Protein skinhead-1): > 100 µM (inactive)

CC(c1ccccc1)(c1ccccc1)c1ccncc1
EC50 [1]: > 50 µM (active)

O=C(CCn1c(=O)c2ccccc2n(CC(=O)NCCC2=CCCCC2)c1=O)NCc1ccco1
IC50 (Protein skinhead-1): > 100 µM (inactive)

Clc1c(-c2ccccc2)nnn1-c1ccccc1
IC50 (Protein skinhead-1): > 100 µM (inactive)

CCOC(=O)c1c(N2C(=O)CC(Sc3ccccc3C(=O)O)C2=O)sc2c1CCCC2 (stereo unspecified)
IC50 [2]: > 66 µM (inactive) | IC50 [3]: > 66 µM (inactive)

Cc1cccc(N2CCN(C(=O)c3ccc(CNc4c(N5CCC(C)CC5)c(=O)c4=O)cc3)CC2C)c1 (stereo unspecified)
IC50 [4]: 14.5 µM (active)

N#C/C(=C(/O)c1ccco1)c1nc2ccccc2s1
EC50 [1]: > 50 µM (active)

COc1ccc(S(=O)(=O)N2CN3CCN(C3)C2)cc1
EC50 [1]: > 50 µM (active)

NC(=O)c1ccc[n+](CC(=O)c2cccc([N+](=O)[O-])c2)c1
EC50 [1]: > 50 µM (active)

CCN1CCCC1CNC(=O)c1ccc2c(c1)N(Cc1ccccc1F)C(=O)c1ccccc1S2(=O)=O (stereo unspecified)
IC50 [4]: 11.2 µM (active)

COc1cc(C(=O)NC(=S)Nc2ccc(NC(=O)c3ccco3)cc2)cc(OC)c1OC
EC50 [5]: 14.8 µM (active) | EC50 (Streptococcus): 7.42 µM (active) | IC50 [2]: > 66 µM (inactive) | IC50 [3]: > 66 µM (inactive)

O=C(Cc1c(O)c2ccccc2[nH]c1=O)NCc1ccccc1
EC50 [6]: > 260 µM (inactive)

COc1nc(-c2ccccc2)cc(-c2ccc(OC)c(OC)c2)n1
CC50 [7]: > 40 µM (active)

CN1CCN(C2=Cc3ccc(Cl)cc3Sc3ccc(F)cc32)CC1
AC50 [8]: 6.81 µM (active) | CC50 [7]: 33.1 µM (active) | EC50 [5]: 7.12 µM (active) | EC50 (Streptococcus): 7.8 µM (active)

CC(C)Oc1ccc(C(=O)NC2=NCCS2)cc1
IC50 [2]: > 66 µM (inactive) | IC50 [3]: > 66 µM (inactive)

Sc1nc2ccccc2c2nc(-c3ccccc3)nn12
CC50 [7]: 35.2 µM (active) | EC50 [5]: 5.84 µM (active) | EC50 (Streptococcus): > 150 µM (not active) | EC50 (Streptokinase A): > 150 µM (not active)

O=C1C=C(c2ccccc2)CC(/C=C/c2ccccc2)C1 (stereo unspecified)
EC50 [6]: > 260 µM (inactive)

CC(C)Cn1c(=O)c2c(nc3n2CCCN3CCc2ccccc2)n(C)c1=O
IC50 [4]: 13.2 µM (active)

COC(=O)C(O)(c1ccc(NC(=S)NC(=O)c2ccccc2)cc1)C(F)(F)F (stereo unspecified)
IC50 (cells): 39.6 µM (active)

CC(C)(C)C(=O)Nc1scc(-c2ccc(-c3ccccc3)cc2)c1C(=O)O
IC50 [4]: 14.5 µM (active)

Cc1cccc(C(=O)Nc2cccc(OCC(=O)O)c2)c1
IC50 [4]: 7.59 µM (active)

O=C(NC(=S)Nc1ncccn1)c1ccccc1Br
IC50 [2]: > 66 µM (inactive) | IC50 [3]: > 66 µM (inactive)

Brc1ccc(-c2nnc(-c3ccccc3)o2)o1
IC50 (Protein skinhead-1): > 100 µM (inactive)

COc1ccc(-c2ccc(OC)c([C@H]3[C@@H]4C=CCC[C@@]4(C)C(=O)N3Cc3ccccc3)c2)cc1OC
CC50 [7]: > 40 µM (active)

COc1ccc(CNc2[nH]cnc3c4cc(OC)c(OC)cc4nc2-3)cc1
CC50 [7]: > 40 µM (active)

CCC(C)(C)n1nnnc1C(c1cc2cc(C)cc(C)c2nc1O)N1CCN(Cc2ccc3c(c2)OCO3)CC1 (stereo unspecified)
EC50 [6]: > 260 µM (inactive)

COc1ccccc1C1CC(c2cccc(NS(C)(=O)=O)c2)=NN1S(=O)(=O)c1ccccc1 (stereo unspecified)
IC50 (Protein skinhead-1): > 100 µM (inactive)

CCCN1CCc2nc(S)nc(O)c2C1
IC50 [2]: > 66 µM (inactive) | IC50 [3]: > 66 µM (inactive)

CC1CC(C)CN(C(=O)COC(=O)c2ccc([N+](=O)[O-])o2)C1 (stereo unspecified)
IC50 (cells): 14.7 µM (active)

Cc1ccc(NC(S)=NCc2cccs2)cc1
EC50 [1]: > 50 µM (active)

Cc1cc(C)c(Cn2c3ccccc3c3cnn(CC(=O)NCCN4CCOCC4)c(=O)c32)c(C)c1
IC50 [4]: 15.8 µM (active)

O=[N+]([O-])c1ccc(-c2cnc(NO)nc2)cc1
EC50 [1]: > 50 µM (active)

Cc1cccc(N2CCN(C(=O)CCN3C(S)=NC(C)(C)CC3C)CC2)c1C (stereo unspecified)
EC50 [1]: > 50 µM (active)

Cc1nc(NC(=O)C23CC4CC(CC(C4)C2)C3)sc1Cc1ccc2c(c1)OCO2
EC50 [9]: 6.33 µM (active) | AC50 (INS1): 14.1 µM (active) | EC50 [10]: 15.8 µM (active) | EC50 [11]: > 60 µM (not active) | EC50 (H4): 8.65 µM (active) | EC50 [12]: 844 nM (active)

CC1(C)c2ccccc2C(=O)c2ccccc21
IC50 (Protein skinhead-1): 24 µM (active)

O=C(N/N=C/c1cc(Cl)cc([N+](=O)[O-])c1O)C1CC1
EC50 [1]: > 50 µM (active)
